From ChEMBL document CHEMBL4507288 (2021)

Legend:
[1] = molecular target: Sodium-dependent noradrenaline transporter (Homo sapiens, UniProt P23975); assay: GPCRScan assay: inhibition of NET; parameters: radioligand conc. used [nm] 1.3 – 5.0, parental cells stable HEK
[2] = molecular target: 5-hydroxytryptamine receptor 2B (Homo sapiens, UniProt P41595); assay: GPCRScan assay: inhibition of 5-HT2B; parameters: radioligand conc. used [nm] 1.0 – 2.0, parental cells stable HEK
[3] = molecular target: Serine/threonine-protein kinase 38-like (Homo sapiens) (UniProt Q9Y2H1); details: Compound concentration 1000.0 nM
[4] = molecular target: Serine/threonine-protein kinase pim-1 (Homo sapiens) (UniProt P11309); details: Compound concentration 1000.0 nM
Chain of Serine/threonine-protein kinase pim-1 (Homo sapiens) (P11309 whole entry, looked up): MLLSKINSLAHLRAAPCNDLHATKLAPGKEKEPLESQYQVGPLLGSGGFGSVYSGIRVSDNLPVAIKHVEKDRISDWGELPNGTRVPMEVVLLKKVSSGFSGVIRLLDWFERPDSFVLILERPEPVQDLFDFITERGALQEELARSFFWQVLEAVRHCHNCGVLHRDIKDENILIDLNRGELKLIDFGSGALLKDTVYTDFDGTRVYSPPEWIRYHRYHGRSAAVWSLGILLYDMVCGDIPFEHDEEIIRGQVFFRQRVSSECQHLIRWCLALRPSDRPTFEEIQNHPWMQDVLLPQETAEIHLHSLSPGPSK

[5] = molecular target: SRSF protein kinase 3 (Homo sapiens) (UniProt Q9UPE1); details: Compound concentration 1000.0 nM
[6] = molecular target: Inhibitor of nuclear factor kappa-B kinase subunit alpha (Homo sapiens) (UniProt O15111); details: Compound concentration 1000.0 nM
[7] = molecular target: Calcium/calmodulin-dependent protein kinase type IV (Homo sapiens) (UniProt Q16566); details: Compound concentration 1000.0 nM
Chain of Calcium/calmodulin-dependent protein kinase type IV (Homo sapiens) (Q16566 whole entry): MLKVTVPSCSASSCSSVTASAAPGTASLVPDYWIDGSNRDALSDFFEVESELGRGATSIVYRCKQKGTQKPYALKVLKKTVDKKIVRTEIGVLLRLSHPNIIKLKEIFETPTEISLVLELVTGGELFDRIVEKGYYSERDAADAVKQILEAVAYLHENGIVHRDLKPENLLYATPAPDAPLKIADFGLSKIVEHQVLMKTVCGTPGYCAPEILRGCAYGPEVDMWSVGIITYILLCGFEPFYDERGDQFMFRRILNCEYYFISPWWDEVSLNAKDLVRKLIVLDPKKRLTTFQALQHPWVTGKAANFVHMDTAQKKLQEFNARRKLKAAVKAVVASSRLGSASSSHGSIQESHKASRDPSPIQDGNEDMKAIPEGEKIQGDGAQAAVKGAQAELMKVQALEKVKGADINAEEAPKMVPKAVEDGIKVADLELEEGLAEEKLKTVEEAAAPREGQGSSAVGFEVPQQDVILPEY

[8] = molecular target: Mitogen-activated protein kinase kinase kinase 3 (Homo sapiens) (UniProt Q99759); details: Compound concentration 1000.0 nM
[9] = tested on: Phosphatidylinositol 4,5-bisphosphate 3-kinase catalytic subunit alpha isoform (Homo sapiens), P42336 [Q546K]; details: Compound concentration 1000.0 nM
Chain of Phosphatidylinositol 4,5-bisphosphate 3-kinase catalytic subunit alpha isoform (Homo sapiens), P42336 [Q546K] (P42336 whole entry Q546K, canonical isoform): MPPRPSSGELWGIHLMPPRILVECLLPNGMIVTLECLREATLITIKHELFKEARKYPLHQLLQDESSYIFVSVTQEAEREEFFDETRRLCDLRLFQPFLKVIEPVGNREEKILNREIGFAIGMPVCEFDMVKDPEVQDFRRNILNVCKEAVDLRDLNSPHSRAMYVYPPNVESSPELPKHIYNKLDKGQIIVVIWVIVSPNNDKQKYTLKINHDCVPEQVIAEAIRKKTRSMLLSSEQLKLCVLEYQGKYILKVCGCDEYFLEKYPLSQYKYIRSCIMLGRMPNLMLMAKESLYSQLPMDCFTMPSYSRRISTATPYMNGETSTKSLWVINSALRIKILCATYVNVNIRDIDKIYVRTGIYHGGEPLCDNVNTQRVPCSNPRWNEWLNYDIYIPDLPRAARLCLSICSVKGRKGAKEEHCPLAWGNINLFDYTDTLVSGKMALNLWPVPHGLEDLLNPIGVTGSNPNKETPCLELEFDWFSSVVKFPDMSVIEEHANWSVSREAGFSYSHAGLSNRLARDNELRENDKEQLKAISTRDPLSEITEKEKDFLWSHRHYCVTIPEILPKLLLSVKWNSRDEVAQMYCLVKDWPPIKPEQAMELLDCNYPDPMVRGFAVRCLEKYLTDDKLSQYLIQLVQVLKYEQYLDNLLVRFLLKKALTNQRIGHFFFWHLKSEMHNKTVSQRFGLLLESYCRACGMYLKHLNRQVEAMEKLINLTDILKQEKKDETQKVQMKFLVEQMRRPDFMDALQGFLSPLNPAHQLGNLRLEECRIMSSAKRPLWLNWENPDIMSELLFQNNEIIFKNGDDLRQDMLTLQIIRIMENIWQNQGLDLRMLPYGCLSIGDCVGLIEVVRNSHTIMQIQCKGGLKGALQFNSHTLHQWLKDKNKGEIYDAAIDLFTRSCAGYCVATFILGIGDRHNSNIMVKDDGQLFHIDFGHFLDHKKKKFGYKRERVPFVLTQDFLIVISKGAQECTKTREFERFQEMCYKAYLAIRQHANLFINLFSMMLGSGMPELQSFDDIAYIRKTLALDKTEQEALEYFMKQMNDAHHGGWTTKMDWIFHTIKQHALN

[10] = molecular target: Dual specificity mitogen-activated protein kinase kinase 7 (Homo sapiens) (UniProt O14733); details: Compound concentration 1000.0 nM
[11] = molecular target: Mitogen-activated protein kinase kinase kinase 11 (Homo sapiens) (UniProt Q16584); details: Compound concentration 1000.0 nM
[12] = molecular target: Interleukin-1 receptor-associated kinase 1 (Homo sapiens) (UniProt P51617); details: Compound concentration 1000.0 nM
[13] = molecular target: Insulin-like growth factor 1 receptor (Homo sapiens) (UniProt P08069); details: Compound concentration 1000.0 nM
[14] = molecular target: Serine/threonine-protein kinase OSR1 (Homo sapiens) (UniProt O95747); details: Compound concentration 1000.0 nM
Chain of Serine/threonine-protein kinase OSR1 (Homo sapiens) (O95747 2-527 limits assumed): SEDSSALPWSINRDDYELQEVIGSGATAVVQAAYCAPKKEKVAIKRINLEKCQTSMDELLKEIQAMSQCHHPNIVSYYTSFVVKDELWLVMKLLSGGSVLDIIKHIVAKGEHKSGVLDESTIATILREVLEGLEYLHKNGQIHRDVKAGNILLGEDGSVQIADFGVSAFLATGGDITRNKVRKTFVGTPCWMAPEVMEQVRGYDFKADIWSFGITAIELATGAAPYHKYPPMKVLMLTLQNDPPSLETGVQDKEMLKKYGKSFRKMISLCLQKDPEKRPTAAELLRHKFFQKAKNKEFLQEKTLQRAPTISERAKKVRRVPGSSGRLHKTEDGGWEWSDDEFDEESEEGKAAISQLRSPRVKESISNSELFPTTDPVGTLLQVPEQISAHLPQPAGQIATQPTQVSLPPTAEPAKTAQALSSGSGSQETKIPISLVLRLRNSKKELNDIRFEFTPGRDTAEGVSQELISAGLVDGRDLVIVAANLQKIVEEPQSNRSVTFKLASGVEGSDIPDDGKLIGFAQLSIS

[15] = molecular target: Mitogen-activated protein kinase kinase kinase 19 (Homo sapiens) (UniProt Q56UN5); details: Compound concentration 1000.0 nM
Chain of Mitogen-activated protein kinase kinase kinase 19 (Homo sapiens) (Q56UN5 whole entry): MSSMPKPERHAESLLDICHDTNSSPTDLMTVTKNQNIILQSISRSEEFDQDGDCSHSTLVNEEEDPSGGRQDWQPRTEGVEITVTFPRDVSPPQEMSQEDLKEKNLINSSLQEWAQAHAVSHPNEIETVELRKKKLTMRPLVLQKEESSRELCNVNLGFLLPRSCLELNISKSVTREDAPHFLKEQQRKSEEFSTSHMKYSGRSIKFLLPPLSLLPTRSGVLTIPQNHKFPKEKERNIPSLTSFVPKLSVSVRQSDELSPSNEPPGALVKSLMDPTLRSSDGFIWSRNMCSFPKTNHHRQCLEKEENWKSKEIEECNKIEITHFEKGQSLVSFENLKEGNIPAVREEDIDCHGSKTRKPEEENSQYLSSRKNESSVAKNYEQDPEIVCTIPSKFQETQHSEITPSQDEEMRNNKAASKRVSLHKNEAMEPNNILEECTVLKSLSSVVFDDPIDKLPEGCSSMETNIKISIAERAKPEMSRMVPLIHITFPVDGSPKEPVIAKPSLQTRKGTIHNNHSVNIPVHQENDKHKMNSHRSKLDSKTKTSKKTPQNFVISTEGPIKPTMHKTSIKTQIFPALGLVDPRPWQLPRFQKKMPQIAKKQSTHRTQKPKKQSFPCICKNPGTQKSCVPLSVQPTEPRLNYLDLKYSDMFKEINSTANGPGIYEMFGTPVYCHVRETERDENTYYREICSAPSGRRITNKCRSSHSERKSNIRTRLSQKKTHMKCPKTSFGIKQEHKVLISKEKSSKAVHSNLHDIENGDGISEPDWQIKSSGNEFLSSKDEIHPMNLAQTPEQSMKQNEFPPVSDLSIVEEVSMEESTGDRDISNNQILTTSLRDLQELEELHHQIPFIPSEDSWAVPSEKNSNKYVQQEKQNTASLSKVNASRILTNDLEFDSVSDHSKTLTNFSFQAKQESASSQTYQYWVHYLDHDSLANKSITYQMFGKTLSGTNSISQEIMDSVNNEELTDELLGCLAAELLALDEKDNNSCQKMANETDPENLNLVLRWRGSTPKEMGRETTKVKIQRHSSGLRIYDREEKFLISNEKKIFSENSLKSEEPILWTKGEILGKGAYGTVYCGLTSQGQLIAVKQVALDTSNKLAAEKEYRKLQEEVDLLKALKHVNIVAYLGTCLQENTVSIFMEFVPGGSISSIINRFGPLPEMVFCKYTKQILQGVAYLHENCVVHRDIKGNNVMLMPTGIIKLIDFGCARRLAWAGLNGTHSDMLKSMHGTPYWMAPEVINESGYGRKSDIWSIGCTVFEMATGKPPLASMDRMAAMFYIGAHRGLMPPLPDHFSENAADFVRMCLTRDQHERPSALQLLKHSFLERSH

[16] = molecular target: Cyclin-dependent kinase 11A (Homo sapiens) (UniProt Q9UQ88); details: Compound concentration 1000.0 nM
[17] = molecular target: Rho-associated protein kinase 1 (Homo sapiens) (UniProt Q13464); details: Compound concentration 1000.0 nM
[18] = molecular target: Tyrosine-protein kinase JAK1 (Homo sapiens) (UniProt P23458); details: Compound concentration 1000.0 nM
[19] = molecular target: cGMP-dependent protein kinase 2 (Homo sapiens) (UniProt Q13237); details: Compound concentration 1000.0 nM
[20] = molecular target: Protein kinase C iota type (Homo sapiens) (UniProt P41743); details: Compound concentration 1000.0 nM
[21] = molecular target: Maternal embryonic leucine zipper kinase (Homo sapiens) (UniProt Q14680); details: Compound concentration 1000.0 nM
[22] = molecular target: Ribosomal protein S6 kinase alpha-1 (Homo sapiens) (UniProt Q15418); details: Compound concentration 1000.0 nM
[23] = molecular target: Tyrosine-protein kinase TXK (Homo sapiens) (UniProt P42681); details: Compound concentration 1000.0 nM
[24] = molecular target: Serine/threonine-protein kinase mTOR (Homo sapiens) (UniProt P42345); details: Compound concentration 1000.0 nM
[25] = molecular target: Serine/threonine-protein kinase N2 (Homo sapiens) (UniProt Q16513); details: Compound concentration 1000.0 nM
[26] = molecular target: Serine/threonine-protein kinase tousled-like 2 (Homo sapiens) (UniProt Q86UE8); details: Compound concentration 1000.0 nM
[27] = molecular target: Tyrosine-protein kinase Fes/Fps (Homo sapiens) (UniProt P07332); details: Compound concentration 1000.0 nM
[28] = molecular target: Discoidin domain-containing receptor 2 (Homo sapiens) (UniProt Q16832); details: Compound concentration 1000.0 nM
[29] = molecular target: Homeodomain-interacting protein kinase 4 (Homo sapiens) (UniProt Q8NE63); details: Compound concentration 1000.0 nM
[30] = molecular target: Cyclin-dependent kinase 18 (Homo sapiens) (UniProt Q07002); details: Compound concentration 1000.0 nM
[31] = tested on: Receptor-type tyrosine-protein kinase FLT3 (Homo sapiens), P36888 [K663Q]; details: Compound concentration 1000.0 nM
[32] = molecular target: NT-3 growth factor receptor (Homo sapiens) (UniProt Q16288); details: Compound concentration 1000.0 nM
[33] = molecular target: Aurora kinase A (Homo sapiens) (UniProt O14965); details: Compound concentration 1000.0 nM
[34] = molecular target: Myotonin-protein kinase (Homo sapiens) (UniProt Q09013); details: Compound concentration 1000.0 nM
[35] = molecular target: Bone morphogenetic protein receptor type-1B (Homo sapiens) (UniProt O00238); details: Compound concentration 1000.0 nM
[36] = molecular target: Microtubule-associated serine/threonine-protein kinase 1 (Homo sapiens) (UniProt Q9Y2H9); details: Compound concentration 1000.0 nM
[37] = molecular target: Receptor tyrosine-protein kinase erbB-4 (Homo sapiens) (UniProt Q15303); details: Compound concentration 1000.0 nM
[38] = molecular target: Serine/threonine-protein kinase 25 (Homo sapiens) (UniProt O00506); details: Compound concentration 1000.0 nM
[39] = tested on: Epidermal growth factor receptor (Homo sapiens), P00533 [L858R]; details: Compound concentration 1000.0 nM
[40] = molecular target: Dual specificity tyrosine-phosphorylation-regulated kinase 2 (Homo sapiens) (UniProt Q92630); details: Compound concentration 1000.0 nM
[41] = tested on: Phosphatidylinositol 4,5-bisphosphate 3-kinase catalytic subunit alpha isoform (Homo sapiens), P42336 [M1043I]; details: Compound concentration 1000.0 nM
Chain of Phosphatidylinositol 4,5-bisphosphate 3-kinase catalytic subunit alpha isoform (Homo sapiens), P42336 [M1043I] (P42336 whole entry M1043I, canonical isoform): as the sequence (P42336 whole entry Q546K, canonical isoform) above, with K546Q, M1043I counted along it

[42] = molecular target: Serine/threonine-protein kinase 32C (Homo sapiens) (UniProt Q86UX6); details: Compound concentration 1000.0 nM
[43] = tested on: ALK tyrosine kinase receptor (Homo sapiens), Q9UM73 [C1156Y]; details: Compound concentration 1000.0 nM
[44] = molecular target: Serine/threonine-protein kinase pim-2 (Homo sapiens) (UniProt Q9P1W9); details: Compound concentration 1000.0 nM
[45] = molecular target: Phosphatidylinositol 4,5-bisphosphate 3-kinase catalytic subunit alpha isoform (Homo sapiens) (UniProt P42336); details: Compound concentration 1000.0 nM

Work on `CC(C)(C)OC(=O)N1CCCC1CNC1CCC(c2cc(F)ccc2F)(S(=O)(=O)c2ccc(Cl)cc2)CC1` (stereo not given) [GSI-NC] yielded a Ki [1] of 2430 nM and a Ki [2] of 21 nM.
Work on `O=S(=O)(NC1CCC(c2cc(F)ccc2F)(S(=O)(=O)c2ccc(Cl)cc2)CC1)C(F)(F)F` (stereo not given) [MRK-560] yielded a residual activity [3] of 75%, a residual activity [4] of 100% and a residual activity [5] of 100%. It also gave a residual activity [6] of 100%, a residual activity [7] of 100% and a residual activity [8] of 100%. It also gave a residual activity [9] of 91%, a residual activity [10] of 100% and a residual activity [11] of 100%. It also gave a residual activity [12] of 93%, a residual activity [13] of 100% and a residual activity [14] of 91%. It also gave a residual activity [15] of 84%, a residual activity [16] of 96% and a residual activity [17] of 84%. It also gave a residual activity [18] of 100%, a residual activity [19] of 100% and a residual activity [20] of 100%. It also gave a residual activity [21] of 69%, a residual activity [22] of 100% and a residual activity [23] of 99%. For the same molecule, the residual activity [24] was 94%, the residual activity [25] was 100% and the residual activity [26] was 100%. The residual activity [27] was 88%, the residual activity [28] was 100% and the residual activity [29] was 74%. For the same molecule, the residual activity [30] was 100%, the residual activity [31] was 97% and the residual activity [32] was 91%. The residual activity [33] was 100%, the residual activity [34] was 100% and the residual activity [35] was 100%. It also gave a residual activity [36] of 100%, a residual activity [37] of 94% and a residual activity [38] of 100%. It also gave a residual activity [39] of 100%, a residual activity [40] of 100% and a residual activity [41] of 100%. For the same molecule, the residual activity [42] was 100%, the residual activity [43] was 100% and the residual activity [44] was 100%. It also gave a residual activity [45] of 100%.
